Patent US7868135B2, “Compositions of lipopeptide antibiotic derivatives and methods of use thereof” (priority 2003, dated 2011)

Tests used:
Staphylococcus aureus = type: cell-based
Method: An exemplary pharmacokinetic parameter to aid in characterizing the properties of lipopeptide derivative compounds of the disclosure is post-antibiotic effect (PAE) of a lipopeptide derivative. For example, a bacterial culture with an initial count of 10^6 to 10^7 colony forming units per ml (CFU/ml) is treated with a certain concentration of lipopetide derivative for a certain time and a parallel (control) culture is left untreated. After treatment, the lipopetide derivative is removed from the culture (e.g., by dilution 1:1000 in fresh, lipopetide derivative-free medium), and the untreated culture is manipulated in the same way. Then the cultures are further incubated and monitored for bacterial growth over time. […] By way of background and not wishing to be bound by theory, a lipopeptide derivative having a measurable PAE activity will likely provide additional time for the host immune system to remove bacteria that might have survived antibiotic treatment and reproduced after the antibiotic is degraded, removed or filtered from the circulatory system. A longer PAE can influence the clinical outcome of antimicrobial therapy (i.e., a lower dose of a lipopetide derivative may be used to treat an infection or the frequency of a dosing regimen can be reduced).
After removal of the lipopeptide compounds, bacterial titre was determined each hour to monitor bacterial re-growth. The PAE duration is defined as the difference in time required for antimicrobial exposed bacterial cells versus unexposed bacterial cells to achieve an increase of 1 log10 unit in CFU/mL.

[1] = In vivo half-life after single i.v. administration, mice; conditions: female, Swiss CD1, mouse, plasma, iv, 10 mg/kg
Method: (§1) Yet other exemplary in vivo models can be used to characterize the pharmacokinetics and pharmacodynamic parameters of antimicrobial compounds of this disclosure. Some parameters that can be measured include an in vivo half-life of a compound, elimination rate and clearance, volume of distribution, and bioavailability. For example, briefly, compounds can be administered as a single i.v. or oral (p.o.) dose in mice or rats. At various time points (ranging from 1 minute to 72 hours), blood from treated animals is collected and the concentration of lipopeptide derivative in the ex vivo plasma can be quantified by, for example, liquid chromatography with mass spectrometric detection (LC/MS). After quantification, pharmacokinetics parameters can be calculated using methods known in the art, such as a one compartment model with mono-exponential decay and linear regression analysis (see, e.g., Fantin et al., Antimicrob. Agents Chemotherap. 35: 1413. 1991).
(§2) A pharmacokinetic parameter that can be measured, and which aids in determining efficacy, after a single i.v. administration of an antimicrobial lipopeptide derivative of the instant disclosure is the systemic half-life of the compound. Briefly, test compounds were dissolved in a 5% mannitol solution (pH was then adjusted) to a concentration of 1 mg/mL (w/v). A single intravenous injection in the lateral caudal vein of Swiss CD1 mice (5 to 6 weeks old, female) or Sprague Dawley rats (male) was used to administer the lipopeptide derivative at a final dose of 10 mg/kg. At various time points (ranging from about 4 minutes to about 24 hours for mice, and 48 or 72 hours for rats) mice were sacrificed and blood was harvested. The concentration of lipopeptide derivative in ex vivo plasma was quantified using liquid chromatography (LC) with mass spectrometric detection (MS).

in vivo = conditions: male, Sprague Dawley, rat, plasma, iv, 10 mg/kg
Method: as §1, §2

[2] = test system: S. aureus Smith (SAU0017, ATCC 19636); test: Intraperitoneal murine model of protection against infection (ED50, Table 21); type: in vivo, Staphylococcus aureus
Description: (§3) A variety of in vivo models may be used to assess the antimicrobial properties of lipopeptide derivative compounds of this disclosure. For example, antimicrobial compounds of the instant disclosure may be tested for efficacy by measuring a compound's ability to protect a mouse against a microbial infection, such as an infection or disease caused by or related to Gram-positive bacteria, including Staphylococcus aureus, Streptococcus pneumoniae, and Enterococcus faecalis. […] A certain period after infection, mice are then individually treated, for example intravenously (i.v.), with a lipopeptide derivative of this disclosure.
(§4) Antimicrobial lipopeptide derivatives of the instant invention were tested for antimicrobial activity against Gram-positive bacteria in an intraperitoneal (i.p.) murine model (i.e., bacteria were injected i.p. and lipopeptide compounds were administered intravenously (i.v.)). Mice were infected with Staphylococcus aureus, Streptococcus pneumoniae, or Enterococcus faecalis, which were prepared as follows: S. aureus Smith (SAU0017, ATCC 19636) were grown in culture overnight on trypticase soy broth, harvested and then resuspended in fresh media containing 5% mucin (Sigma Chemical Co.); S. pneumoniae (SPN 0032, ATCC 10813) were grown overnight on blood agar plates and re-suspended in 0.9% sterile saline; and E. faecalis EFS0040 (clinical isolate) were grown overnight in culture on blood heart infusion broth, washed and resuspended in 0.9% saline and mixed with equal volume of sterile fecal rat extract. Swiss CD1 mice were each infected i.p. with bacteria at the following doses: S. aureus at 10^6 CFU/mouse; S. pneumoniae at 10^2 CFU/mouse; or E. faecalis at 10^7.5 CFU/mouse. […] The ED50 for each compound was calculated using the method of Reed and Meunch (Am. J. Hyg. 27: 493, 1938).

[3] = test system: E. faecalis EFS0040 (clinical isolate); test: as above; type: in vivo, Enterococcus faecalis
Description: as §3, §4

[4] = test system: Streptococcus pneumoniae (SPN032, ATCC 1081); test: Intranasal murine lung infection model; type: in vivo
Method: (§5) Other exemplary in vivo models of infection that may be used to assess, for example, the efficacy of an antimicrobial lipopeptide of the instant disclosure include the following: (A) a mouse (murine) model of lung infection (pneumonia) wherein the bacterial infection is administered intranasally (i.n.); (B) a murine thigh muscle model wherein the bacterial infection is administered intramuscularly (i.m.) in normal or neutropenic (immunocompromised) mice; and (C) a combination murine thigh muscle model (i.m. infection)/lung (i.n.) infection.
Antimicrobial lipopeptide derivatives of the instant invention were tested for antimicrobial activity against Gram-positive bacteria in an intranasal (i.n.) murine lung infection model (i.e., bacteria were innoculated i.n. and lipopeptide compounds were administered i.v.). Streptococcus pneumoniae (SPN032, ATCC 1081) were grown on 5% sheep blood agar plates for 24 h at 37° C., harvested and then resuspended in 0.9% saline. A group of eight Swiss CD1 mice were sedated with 2% isoflurane, and each was infected i.n. dropwise to the nares with 50 μl of the prepared bacterial inoculum (i.e., a dose of about 10^6 CFU/mouse). […] The ED50 (mg/kg) for each compound was calculated using the method of Reed and Meunch (Am. J. Hyg. 27: 493, 1938).

[5] = Acute toxicity, maximum tolerated dose (MTD); conditions: Swiss CD1, mouse, in vivo, iv
Method: Another measure of toxicity is the maximum tolerated dose (MTD), which is determined as a dose level that is not accompanied by mortality or life-threatening toxicity. The dose ratio between toxic and therapeutic effect is the therapeutic index. […] The data obtained from these cell culture assays and animal studies can be used in formulating a dosage range that is not toxic for use in human subjects. […] The dosage may vary within this range depending upon the dosage form employed and the route of administration utilized. The exact formulation, route of administration and dosage can be chosen by the individual physician in view of the patient's condition or need thereof (see, e.g., Fingl et al., 1975, In: The Pharmacological Basis of Therapeutics, Chapter 1).
For example, to examine acute toxicity, lipopeptide antibiotics of the invention can be tested in an animal model, such as Swiss CD1 mice, to determine the MTD. In certain embodiments, the animals used to test toxicity of a particular compound can be approximately 5-6 weeks old at the start of the experiment and weigh 22-26 g. The lipopeptides may be administered intravenously (i.v.) into, for example, the caudal tail vein at dose levels that range from about 50 to about 500 mg/kg, or from about 75 to about 250 mg/kg, or from about 100 to about 200 mg/kg, or at a dose range at or below 100 mg/kg. The animals are generally observed immediately after administration, 1-2 hours post administration, 5-8 hours post administration, and once daily thereafter. Observations include both the activity level of the mouse as well as any physical side effects from the administered dose. The animal weight is recorded on day 0 (immediately before dosing) and on day 7.

[6] = test system: Enterococcus faecalis (EFS0004); test: Kill curve (bactericidal activity); type: cell-based; conditions: FIG. 4A
Method: (§6) Another measure of the antimicrobial properties of the lipopeptide derivative compounds of this disclosure includes kill curve measurements. Kill curve experiments generally involve exposure of microorganisms to varying concentrations (e.g., multiples of a compound's MIC) of a test compound. The microorganisms may be in culture at log phase of growth or may be in a particular host tissue (e.g., lung) for up to 24 hours before exposure to a test compound. At selected time points, a sample of each culture or tissue can be analyzed for a titre of viable microorganisms, which is generally gauged against the time required for a compound to inhibit growth or kill bacteria.
(§7) Kill curve experiments were performed with both Staphylococcus aureus (SAU0017) and Enterococcus faecalis (EFS0004) organisms grown to log phase, which were suspended in cation-adjusted Mueller-Hinton broth with additional 0.625 mM Ca^+2 to a concentration of 10^6 CFU/mL. The cultures were then exposed to varying concentrations (i.e., multiples of the MIC) of a lipopeptide derivative and incubated at about 37° C. At selected time points from about 0 hours to about 24 hours, a sample of each culture was analyzed for a titre of viable organisms (CFU/ml), which was compared against the time required for each compound to kill bacteria.

[7] = test system: Staphylococcus aureus (SAU0017); test: Kill curve (bactericidal activity); type: cell-based; conditions: FIG. 5A
Method: as §6, §7

[8] = test system: S. pneumoniae (SPN 0032, ATCC 10813); test: Intraperitoneal murine model of protection against infection (ED50, Table 21); type: in vivo, Streptococcus pneumoniae; conditions: Streptococcus pneumoniae, ATCC10813, read-out: ED50 in Mice, S. pneumoniae (SPN0032)
Description: as §3, §4

[9] = test system: Staphylococcus aureus (SAU0017); test: Thigh infection model in neutropenic mice; type: in vivo; conditions: Staphylococcus aureus, iv
Method: as §5

[10] = Swiss CD1 mice infected i.p., compound i.v.

SMILES: CCCCCCCCCCCC(=O)Nc1ccc(C(=O)NC(CC(=O)O)C(=O)NC2C(=O)N3CCCCC3C(=O)NC(C(C)C(=O)O)C(=O)NC(CC(=O)O)C(=O)NCC(=O)NC(CC(=O)O)C(=O)NCC(=O)NC(C(C)NC(=O)CCN)C(=O)NC(C(C)C)C(=O)N3CCCC3C(=O)NC2C)cc1 (stereo not drawn) [Compound 280, C12-PABA-Amphomycin-9-(β-Ala)]
- Post Antibiotic Effect (hours) 0.5 × MIC (Staphylococcus aureus; exposure one hour at 0.5 × MIC, S. aureus log phase): 2.5 h
- Post Antibiotic Effect (hours) 1 × MIC (Staphylococcus aureus; exposure one hour at 1 × MIC): 1.5 h
- Post Antibiotic Effect (hours) 2 × MIC (Staphylococcus aureus; exposure one hour at 2 × MIC): 1.9 h
- Post Antibiotic Effect (hours) 4 × MIC (Staphylococcus aureus; exposure one hour at 4 × MIC): 2.4 h
- half-life [1]: 5.75 h
- half-life (in vivo): 7.07 h
- ED50 in Mice, S. aureus (SAU0017) [2, 10]: 6.5 mg/kg
- ED50 in Mice, E. faecalis (EFS0040) [3, 10]: 2.1 mg/kg
- ED50 ([4]; Swiss CD1 mice, i.n. S. pneumoniae, i.v. treatment at 3, 24 and 48 hours post-infection, deaths over ten days): 1.8 mg/kg
- MTD at 7 days [5]: 200 to 400 mg/kg

SMILES: CN[C@H](CC(C)C)C(=O)N[C@H]1C(=O)N[C@@H](CC(N)=O)C(=O)N[C@H]2C(=O)N[C@H]3C(=O)N[C@H](C(=O)N[C@H](C(=O)O)c4cc(O)cc(O)c4-c4cc3ccc4O)[C@H](O)c3ccc(c(Cl)c3)Oc3cc2cc(c3O[C@@H]2O[C@H](CO)[C@@H](O)[C@H](O)[C@H]2O[C@H]2C[C@](C)(N)[C@H](O)[C@H](C)O2)Oc2ccc(cc2Cl)[C@H]1O [Vancomycin, reference compound]
- bactericidal or bacteriostatic in kill curve [6]: bacteriostatic
- bactericidal or bacteriostatic in kill curve [7]: bacteriostatic
- ED50 ([2]; Staphylococcus aureus, ATCC19636, read-out: ED50 in Mice, S. aureus (SAU0017)): 0.9 to 2.4 mg/kg
- ED50 [8]: 1.75 mg/kg
- ED50 ([3]; Enterococcus faecalis, read-out: ED50 in Mice, E. faecalis (EFS0040)): 2 mg/kg
- ED50 ([4]; Streptococcus pneumoniae, ATCC1081, iv): 3 to 4.3 mg/kg
- ED50 [9]: 0.9 to 1.6 mg/kg
